One block for each molecule: values may come before it.
Test system: 636577-100-R-J1-PDC complex spheroid viability
Assay: Anticancer human tumor 636577-100-R-J1-PDC patient-derived endometrial adenocarcinoma cell line growth inhibition [GQUAD]
Conditions: for IC50: curve of first compound; for viability, T/C: stronger effect = lower value
In short: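 Multi-cell-type spheroids of tumor cells with HUVEC and mesenchymal stem cells, treated with drug combinations. Concentrations descend in half-log steps from near clinical Cmax, or from 10 microM where Cmax is unknown; viability read-out.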

[1] = second compound 0.0316 µM, first compound 0.0316 µM
[2] = second compound 0.0316 µM, first compound 0.1 µM
[3] = second compound 0.0316 µM, first compound 0.316 µM
[4] = second compound 0.0316 µM, first compound 1 µM
[5] = second compound 0.0316 µM, first compound 3.16 µM
[6] = second compound 0.0316 µM, first compound 10 µM
[7] = second compound 0.1 µM, first compound 0.0316 µM
[8] = second compound 0.1 µM, first compound 0.1 µM
[9] = second compound 0.1 µM, first compound 0.316 µM
[10] = second compound 0.1 µM, first compound 1 µM
[11] = second compound 0.1 µM, first compound 3.16 µM
[12] = second compound 0.1 µM, first compound 10 µM
[13] = second compound 0.316 µM, first compound 0.0316 µM
[14] = second compound 0.316 µM, first compound 0.1 µM
[15] = second compound 0.316 µM, first compound 0.316 µM
[16] = second compound 0.316 µM, first compound 1 µM
[17] = second compound 0.316 µM, first compound 3.16 µM
[18] = second compound 0.316 µM, first compound 10 µM
[19] = second compound 1 µM, first compound 0.0316 µM
[20] = second compound 1 µM, first compound 0.1 µM
[21] = second compound 1 µM, first compound 0.316 µM
[22] = second compound 1 µM, first compound 1 µM
[23] = second compound 1 µM, first compound 3.16 µM
[24] = second compound 1 µM, first compound 10 µM
[25] = second compound 3.16 µM, first compound 0.0316 µM
[26] = second compound 3.16 µM, first compound 0.1 µM
[27] = second compound 3.16 µM, first compound 0.316 µM
[28] = second compound 3.16 µM, first compound 1 µM
[29] = second compound 3.16 µM, first compound 3.16 µM
[30] = second compound 3.16 µM, first compound 10 µM
[31] = second compound 10 µM, first compound 0.0316 µM
[32] = second compound 10 µM, first compound 0.1 µM
[33] = second compound 10 µM, first compound 0.316 µM
[34] = second compound 10 µM, first compound 1 µM
[35] = second compound 10 µM, first compound 3.16 µM
[36] = second compound 10 µM, first compound 10 µM
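Further: viability read after seven days of drug exposure.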
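Wherever viability, T/C is given: luminescence signal used as a proxy for viable cells; 100% = DMSO vehicle control wells.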

IC50 (second compound 0.0316 µM): < 31.6 nM | IC50 (second compound 0.1 µM): < 31.6 nM | IC50 (second compound 0.316 µM): < 31.6 nM | IC50 (second compound 1 µM): < 31.6 nM | IC50 (second compound 3.16 µM): < 31.6 nM | IC50 (second compound 10 µM): < 31.6 nM
SMILES: Cc1cccc(N(C)C(=O)C2C(O)CCN2c2nc(C)cc(C(F)(F)F)c2C#N)c1 (stereo not drawn) + Cc1cnc(CNC(=O)c2c(=O)c3ccc(N4CCCN(C)CC4)nc3n3c2sc2ccccc23)cn1
viability, T/C [1]: 52.7% | viability, T/C [2]: 43.5% | viability, T/C [3]: 35% | viability, T/C [4]: 39.7% | viability, T/C [5]: 40.5% | viability, T/C [6]: 43.9% | viability, T/C [7]: 29.2% | viability, T/C [8]: 22.6% | viability, T/C [9]: 25.3% | viability, T/C [10]: 23.2% | viability, T/C [11]: 25.7% | viability, T/C [12]: 24.6% | viability, T/C [13]: 21.8% | viability, T/C [14]: 18.1% | viability, T/C [15]: 21.6% | viability, T/C [16]: 21.6% | viability, T/C [17]: 24.2% | viability, T/C [18]: 22.7% | viability, T/C [19]: 19.1% | viability, T/C [20]: 19.7% | viability, T/C [21]: 19.7% | viability, T/C [22]: 19.2% | viability, T/C [23]: 20.8% | viability, T/C [24]: 25.2% | viability, T/C [25]: 12.5% | viability, T/C [26]: 19.6% | viability, T/C [27]: 19.4% | viability, T/C [28]: 21% | viability, T/C [29]: 22.4% | viability, T/C [30]: 20.7% | viability, T/C [31]: 22.3% | viability, T/C [32]: 17.8% | viability, T/C [33]: 21% | viability, T/C [34]: 17.9% | viability, T/C [35]: 22.9% | viability, T/C [36]: 20.8%

SMILES: COc1cc(C2c3cc4c(cc3C(OC3OC5COC(C)OC5C(O)C3O)C3COC(=O)C23)OCO4)cc(OC)c1O (stereo not drawn) + Cc1[nH]c2ccc(F)cc2c1-c1nc2c3cccnc3c3ncccc3c2[nH]1
IC50 (second compound 0.0316 µM): 86.7 nM | IC50 (second compound 0.1 µM): 68.8 nM | IC50 (second compound 0.316 µM): 85.8 nM | IC50 (second compound 1 µM): 58.8 nM | IC50 (second compound 3.16 µM): < 31.6 nM | IC50 (second compound 10 µM): 36.8 nM | viability, T/C [1]: 80.6% | viability, T/C [2]: 45.6% | viability, T/C [3]: 24.1% | viability, T/C [4]: 16.1% | viability, T/C [5]: 16% | viability, T/C [6]: 14% | viability, T/C [7]: 68.4% | viability, T/C [8]: 41.2% | viability, T/C [9]: 23.4% | viability, T/C [10]: 17.1% | viability, T/C [11]: 17.5% | viability, T/C [12]: 13.9% | viability, T/C [13]: 71.5% | viability, T/C [14]: 46.7% | viability, T/C [15]: 21.1% | viability, T/C [16]: 16.8% | viability, T/C [17]: 16.8% | viability, T/C [18]: 14.2% | viability, T/C [19]: 65.3% | viability, T/C [20]: 37.2% | viability, T/C [21]: 21.4% | viability, T/C [22]: 19.9% | viability, T/C [23]: 18% | viability, T/C [24]: 13.8% | viability, T/C [25]: 30% | viability, T/C [26]: 23.9% | viability, T/C [27]: 21% | viability, T/C [28]: 18.5% | viability, T/C [29]: 17.8% | viability, T/C [30]: 14.1% | viability, T/C [31]: 52.5% | viability, T/C [32]: 34.6% | viability, T/C [33]: 21.9% | viability, T/C [34]: 19.1% | viability, T/C [35]: 18.3% | viability, T/C [36]: 15.1%

SMILES: CC(C)n1c(=O)n(C)c2cnc3cc(F)c(-c4ccc(OCCCN5CCCCC5)nc4)cc3c21 + CN(C)c1ccc(Nc2c3ccc(NC(=O)CCN4CCCC4)cc3nc3cc(NC(=O)CCN4CCCC4)ccc23)cc1
IC50 (second compound 0.0316 µM): > 10000 nM | IC50 (second compound 0.1 µM): > 10000 nM | IC50 (second compound 0.316 µM): 8490 nM | IC50 (second compound 1 µM): 4900 nM | IC50 (second compound 3.16 µM): < 31.6 nM | IC50 (second compound 10 µM): < 31.6 nM | viability, T/C [1]: 121% | viability, T/C [2]: 101% | viability, T/C [3]: 127% | viability, T/C [4]: 49.5% | viability, T/C [5]: 93.8% | viability, T/C [6]: 53.5% | viability, T/C [7]: 128% | viability, T/C [8]: 102% | viability, T/C [9]: 109% | viability, T/C [10]: 74.9% | viability, T/C [11]: 82.1% | viability, T/C [12]: 52.4% | viability, T/C [13]: 67.6% | viability, T/C [14]: 81.7% | viability, T/C [15]: 103% | viability, T/C [16]: 63.6% | viability, T/C [17]: 71.7% | viability, T/C [18]: 46.6% | viability, T/C [19]: 60% | viability, T/C [20]: 67.8% | viability, T/C [21]: 75.9% | viability, T/C [22]: 57% | viability, T/C [23]: 61.6% | viability, T/C [24]: 33.5% | viability, T/C [25]: 39% | viability, T/C [26]: 36.2% | viability, T/C [27]: 30.2% | viability, T/C [28]: 27% | viability, T/C [29]: 20.6% | viability, T/C [30]: 14.5% | viability, T/C [31]: 7% | viability, T/C [32]: 5.49% | viability, T/C [33]: 4.48% | viability, T/C [34]: 2.77% | viability, T/C [35]: 2.25% | viability, T/C [36]: 0.79%

SMILES: CC1COCCN1c1cc(-c2ccnn2C)c2ccnc(-c3ccn[nH]3)c2n1 (stereo not drawn) + Cc1[nH]c2ccc(F)cc2c1-c1nc2c3cccnc3c3ncccc3c2[nH]1
IC50 (second compound 0.0316 µM): 96.7 nM | IC50 (second compound 0.1 µM): 84.9 nM | IC50 (second compound 0.316 µM): 105 nM | IC50 (second compound 1 µM): < 31.6 nM | IC50 (second compound 3.16 µM): < 31.6 nM | IC50 (second compound 10 µM): < 31.6 nM | viability, T/C [1]: 89.7% | viability, T/C [2]: 48.1% | viability, T/C [3]: 26.9% | viability, T/C [4]: 10.8% | viability, T/C [5]: 7.12% | viability, T/C [6]: 4.03% | viability, T/C [7]: 59.4% | viability, T/C [8]: 49.1% | viability, T/C [9]: 23.9% | viability, T/C [10]: 11.4% | viability, T/C [11]: 8.62% | viability, T/C [12]: 4.31% | viability, T/C [13]: 59.4% | viability, T/C [14]: 52.9% | viability, T/C [15]: 25.8% | viability, T/C [16]: 14.5% | viability, T/C [17]: 8.77% | viability, T/C [18]: 4.31% | viability, T/C [19]: 39% | viability, T/C [20]: 32.5% | viability, T/C [21]: 23% | viability, T/C [22]: 15% | viability, T/C [23]: 8.69% | viability, T/C [24]: 3.56% | viability, T/C [25]: 16.9% | viability, T/C [26]: 18.7% | viability, T/C [27]: 15.5% | viability, T/C [28]: 9.23% | viability, T/C [29]: 6.94% | viability, T/C [30]: 3.78% | viability, T/C [31]: 41.6% | viability, T/C [32]: 24.7% | viability, T/C [33]: 20.6% | viability, T/C [34]: 13.2% | viability, T/C [35]: 8.7% | viability, T/C [36]: 4.88%
